Experimental data as given in PMC8748916, “Microbial enzymes induce colitis by reactivating triclosan in the mouse gastrointestinal tract” (Nature Communications, 2022).
“And” between values parts separate entries of the source, which are not always exact repeats. Equal entries are not always repeated.

Assay: LC-MS/MS profiling of TCS metabolism in mice (TCS via diet for 4 weeks)
Details: for concentration of free TCS in the colon digesta: mean; for concentration of TCS, TCS-G, TCS-Sulfate: individual mice

In the case of `Oc1cc(Cl)ccc1Oc1ccc(Cl)cc1Cl` [TCS, Triclosan], the “concentration of free TCS in the colon digesta” value (from here on “concentration of free TCS”) (1 ppm TCS in diet 4 weeks) was 1.5 pmol/mg tissue, the “concentration of free TCS” value (10 ppm TCS in diet 4 weeks) was 14.7 pmol/mg tissue and the “concentration of free TCS” value (80 ppm TCS in diet 4 weeks) was 92.2 pmol/mg tissue. The “concentration of TCS, TCS-G, TCS-Sulfate” value (Cecum (digesta), 80 ppm TCS via diet 4 weeks) was 109.26 pmol/mg and 94.56 pmol/mg and 76.97 pmol/mg, the “concentration of TCS, TCS-G, TCS-Sulfate” value (Feces, 10 ppm TCS in diet 4 weeks) was 22.61 pmol/mg and 75.8 pmol/mg and the “concentration of TCS, TCS-G, TCS-Sulfate” value (Feces, 80 ppm TCS in diet 4 weeks) was 290.88 pmol/mg and 142.03 pmol/mg. The “concentration of TCS, TCS-G, TCS-Sulfate” value (Heart, 80 ppm TCS via diet 4 weeks) was 0.98 pmol/mg and 0.71 pmol/mg and 0.63 pmol/mg, the “concentration of TCS, TCS-G, TCS-Sulfate” value (SI 1st section (digesta), 80 ppm TCS via diet 4 weeks) was 15.09 pmol/mg and 9.94 pmol/mg and 15.65 pmol/mg and 19.61 pmol/mg and the “concentration of TCS, TCS-G, TCS-Sulfate” value (SI 2nd section (digesta), 80 ppm TCS via diet 4 weeks) was 19.75 pmol/mg and 18.37 pmol/mg and 9.51 pmol/mg and 14.12 pmol/mg and 15.69 pmol/mg and 13.92 pmol/mg and 18.94 pmol/mg and 9.21 pmol/mg and 13.42 pmol/mg and 3.48 pmol/mg. For the same compound, the “concentration of TCS, TCS-G, TCS-Sulfate” value (SI 3rd section (digesta), 80 ppm TCS via diet 4 weeks) was 29.24 pmol/mg and 24.80 pmol/mg and 7.10 pmol/mg and 13.01 pmol/mg and 17.21 pmol/mg and 23.02 pmol/mg and 19.18 pmol/mg and 15.52 pmol/mg and 17.98 pmol/mg and 27.55 pmol/mg, the “concentration of TCS, TCS-G, TCS-Sulfate” value (SI 4th section (digesta), 80 ppm TCS via diet 4 weeks) was 31.18 pmol/mg and 38.07 pmol/mg and 17.93 pmol/mg and 37.99 pmol/mg and 55.42 pmol/mg and 35.20 pmol/mg and 31.30 pmol/mg and 21.74 pmol/mg and 18.77 pmol/mg and 46.26 pmol/mg and the “share of TCS metabolites found” value (digesta of the 4th section of the mouse small intestine, 80 ppm TCS via diet 4 weeks) was 36.9%. The “share of TCS metabolites found” value (fecal content, 80 ppm TCS via diet 4 weeks) was 99.1% and the “share of detected TCS species present as free TCS” value (gut sections (colon digesta, cecum digesta, feces), 1, 10 and 80 ppm TCS via diet 4 weeks) was 94-100%.
